Assay: Triple helix self-assembly by CD spectroscopy
Format: physicochemical
Experimental: Circular dichroism (CD) spectroscopy was used to evaluate self-assembly of the triple helix for each of our collagen model peptides. […] The data from CD thermal denaturation experiments were fitted to a two-state model, as previously described.
Purified peptides were incubated in PBS buffer for at least 24 hours. […] The data from CD thermal denaturation experiments were fitted to a two-state model as previously described.^12,13 The melting temperatures (Tm), at which 50% of the triple helix unfolds, are listed next to the peptides in FIG. 11.
Resulting peptide 5 was purified by HPLC and incubated at a concentration of 0.2 mM in PBS buffer (pH 7) for 24 h.
Multiple aza-Proline residues: Finally, we determined the number of stereodynamic center (i.e., AzProHypGly trimer) that can be incorporated into a collagen model peptide without perturbing the triple-helix formation.

## (GPO)4
  triple helix formation / self-assembly: does not

Source: patent US10174083B2, “Aza-amino acid collagen compounds” (The Trustees of the University of Pennsylvania, priority 2016, dated 2019)
